This is an account of results in US7637980B2, “Method of increasing photosynthesis in plants comprising an exposure thereof to lipochitooligosaccharides and compositions therefor” (McGill University, priority 1999, dated 2009).

What all share (assay type): in vivo
Assay [1] has as its system soybean (cv OAC Bayfield). In words: Photosynthesis of soybean under field conditions (1999). How it is done:
The soybean experiment was conducted at the Lods Agronomy Research Centre, McGill University, Macdonald Campus, Ste-Anne-de-Bellevue, Quebec, Canada during the period June to September, 1999. A randomized complete block design with three blocks was followed. The plot size was 2×4 m with a row to row spacing of 25 cm and 10 cm between plants within a row. Seeds of soybean (cv OAC Bayfield), treated with commercial Bradyrhizobium japonicum inoculant (Bios Agriculture Inc., Quebec, Canada) at the rate of 3 g per kilogram of seed, were hand planted.
At 25 days after planting twenty plants in each plot were randomly marked and sprayed until dripping with LCO solutions (10^−6, 10^−8 and 10^−10M) containing 0.02% Tween 20 with a hand sprayer. The plants on either side, within the row, of the marked plants were also sprayed. A second spray was carried out at flowering stage and a third spray at pod filling.
(§1) As with the indoor experiments, photosynthetic readings were taken every day for five days after the application of LCO. For soybean additional developmental and agronomic data were collected. The first harvest was conducted at 25 days after the first spray treatment. Five plants were harvested from each plot and the following growth variables were analyzed: plant height, number of branches, number of leaves, leaf area, number of flower clusters, number of pods, number of nodules, dry weights of leaves, stem and roots. The final harvest was conducted after physiological maturity of the plants (Fehr et al., 1971); at this time the remaining fifteen treated plants from each plot were harvested and data on number of branches, number of pods, number of seeds and grain yield per plant was collected.

The test system of another assay is corn (Pioneer 3921). Briefly: Photosynthesis of field-grown corn after LCO spray. How it is done: as §1, with “Single row corn plots (Pioneer 3921) were established during the 1999 and 2000 cropping seasons. The rows were 75 cm apart and their was an average of 20 cm between plants. The plants were sprayed at 40 DAP. Photosynthetic rates were recorded each day for 5 days after spray application. However, multiple sprays of LCO on corn were not possible due to limitations of LCO supplies, and because only single row plots were used yields were not recorded. As” for “As”

Assay [2] deals with rice (Oryza sativa cv Cypress). In words: Photosynthesis of rice after LCO spray, greenhouse. How it is done: Seeds of rice (Oryza sativa cv Cypress), canola (Brassica napus cv Springfield), corn (Zea mays cv Pioneer 3921) and melon (Cucumis melo cv Nova) were surface sterilized with 2% sodium hypochlorite for 3-4 min, washed with several changes of sterile distilled water and planted in plastic pots (15 cm dia) containing promix (Premier Brands Inc., New Rochelle, N.Y., USA).
Concentrations of LCO (10^−6 M-10^−12 M) were made with distilled water containing 0.02% Tween 20. A control treatment, containing 0.02% Tween 20, but no LCO was also applied. Since the rates of growth and development differed among the plant species used in the experiments, spray treatment was conducted at different times after planting In general, the spray was applied when the plants were big enough to allow easy measurements of leaf photosynthetic rates. The following are the ages of the plants when the sprays were conducted: soybean 21 days after planting (DAP), corn 25 DAP, rice 45 DAP, melon (35 DAP) and canola 30 DAP. The plants were sprayed with LCO solutions until dripping. The sprays were applied with an atomizer (Nalgene, USA). Each plant required 2-3 mL of spray solution. Each treatment was replicated at least five times and organized on the green house bench in a randomized complete block design. Each experiment (with each crop species) was repeated at least twice.
Photosynthesis was recorded every 24 h using a Li-Cor 6400 portable photosynthesis system (Li-Cor Inc., Lincoln, Neb., USA) for 6 days. In the case of soybean the photosynthesis in the second nodal leaf from the top was recorded while in the other species used in the photosynthetic rate was measured for the top-most fully expanded leaf. Soybean plants were harvested after seven days of LCO treatment and dried at 80° C. for 48 h. Data were analyzed with the Statistical Analysis System (SAS Inc., N.C., USA). Percent increase in photosynthesis over the control was calculated.

The next assay has as its system Grapes (cv De Chaunac). In words: Photosynthesis of field-grown grape after LCO spray. How it is done: These experiments were conducted at the horticultural research facility of McGill University, Ste-Anne-de-Bellevue, Quebec, Canada during July 2000. LCO of different concentrations (10^−8, and 10^−10M) were prepared as described above. Branches of apple (cv Empire) and Grapes (cv De Chaunac) were sprayed with LCO and the photosynthesis was observed every 24 h for five days with a Li-Cor 6400 portable photosynthesis system (Li-Cor Inc., USA). Each treatment was applied to three branches from the same plant. Care was taken to ensure that the branches were on the same level and orientation. Part of each branch was sprayed with LCO and the remaining part served as a control. The control portion of the branch was sprayed with distilled water containing the same amount of Tween 20 as the LCO treatment solution. Observations were taken on 15 leaves per replicate for each treatment. For both apple and grape the entire procedure was repeated twice on two different plants.

In the case of Nod Bj V (C18:1, MeFeu), in assay [1], the stomatal conductance result was “increases” and the transpiration entry is “increased”. This substance came in with a photosynthetic rate in assay [1] (10^−6 M, day three) of 24 µmol m^−2 s^−1. Further, the Ci entry with corn (Pioneer 3921) (field grown plants) is reported as “no such effect”. Also, the “increase of photosynthetic rate, maximum” value in the assay on corn (Pioneer 3921) (field, two days after treatment application) is listed as “approximately 10%”. In assay [2], the “intercellular CO2 concentration” value is given as “unaffected”, the stomatal conductance result is “increases” and the transpiration result is “increases”. Further, the increase in photosynthesis in assay [2] (in general) is recorded as 10-20%. Besides, the stomatal conductance entry with Grapes (cv De Chaunac) (10^−10 M, three days after treatment) is “increase”. Moreover, the photosynthetic rates entry in the assay on Grapes (cv De Chaunac) (greatest three days after treatment with 10^−10 M) was “increases”.
